Columns and labels:
[1] = target: T1, Prostaglandin E2 receptor EP4 subtype (Rattus norvegicus, UniProt P43114); assay: Activity at rat EP4 transfected in HEK293 cells by cAMP accumulation; type: functional, cell-based
[2] = target: Prostaglandin E2 receptor EP4 subtype (Rattus norvegicus) (UniProt P43114); assay: Activity at rat EP4 transfected in HEK293 cells by cAMP accumulation compared to PGE2; type: functional, cell-based
[3] = target: T2, Prostaglandin E2 receptor EP1 subtype (Homo sapiens, UniProt P34995); assay: Binding affinity to human EP1 receptor expressed in HEK293 cells; type: cell-based
T2 sequence (P34995 whole entry): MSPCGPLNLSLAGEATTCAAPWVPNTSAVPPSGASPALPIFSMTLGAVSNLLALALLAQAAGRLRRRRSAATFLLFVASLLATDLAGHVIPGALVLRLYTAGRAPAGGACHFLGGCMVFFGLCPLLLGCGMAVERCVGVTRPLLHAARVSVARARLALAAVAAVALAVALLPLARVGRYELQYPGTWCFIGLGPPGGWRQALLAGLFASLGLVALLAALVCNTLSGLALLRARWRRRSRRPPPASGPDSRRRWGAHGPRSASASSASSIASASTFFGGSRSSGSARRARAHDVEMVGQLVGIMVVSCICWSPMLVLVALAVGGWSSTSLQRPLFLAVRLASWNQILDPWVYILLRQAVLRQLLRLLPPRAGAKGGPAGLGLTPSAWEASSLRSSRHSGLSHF

[4] = target: Prostaglandin E2 receptor EP2 subtype (Rattus norvegicus, UniProt Q62928); assay: Binding affinity to rat EP2 receptor expressed in HEK293 cells; type: cell-based
Sequence of Prostaglandin E2 receptor EP2 subtype (Q62928 whole entry): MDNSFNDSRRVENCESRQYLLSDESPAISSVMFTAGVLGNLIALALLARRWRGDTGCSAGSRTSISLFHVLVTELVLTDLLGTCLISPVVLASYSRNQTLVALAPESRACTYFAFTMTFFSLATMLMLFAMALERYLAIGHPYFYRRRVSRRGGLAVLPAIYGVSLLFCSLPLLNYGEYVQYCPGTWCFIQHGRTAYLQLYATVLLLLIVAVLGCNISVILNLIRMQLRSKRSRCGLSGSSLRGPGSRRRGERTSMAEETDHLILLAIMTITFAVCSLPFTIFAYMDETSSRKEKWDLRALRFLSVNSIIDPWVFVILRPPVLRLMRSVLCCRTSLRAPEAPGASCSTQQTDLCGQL

[5] = target: T3, Prostaglandin E2 receptor EP3 subtype (Homo sapiens, UniProt P43115); assay: Binding affinity to human EP3 receptor expressed in HEK293 cells; type: cell-based
T3 sequence (P43115 whole entry): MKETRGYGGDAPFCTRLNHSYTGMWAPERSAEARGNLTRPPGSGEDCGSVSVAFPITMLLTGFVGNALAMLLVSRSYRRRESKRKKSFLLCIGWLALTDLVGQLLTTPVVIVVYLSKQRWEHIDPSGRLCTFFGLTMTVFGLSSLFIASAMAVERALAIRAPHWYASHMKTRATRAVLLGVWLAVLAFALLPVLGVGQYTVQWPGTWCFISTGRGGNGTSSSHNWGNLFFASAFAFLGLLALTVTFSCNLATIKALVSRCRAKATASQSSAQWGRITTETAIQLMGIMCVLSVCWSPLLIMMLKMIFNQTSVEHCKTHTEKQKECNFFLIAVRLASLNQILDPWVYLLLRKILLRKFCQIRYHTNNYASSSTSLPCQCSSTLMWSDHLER

[6] = target: T1, Prostaglandin E2 receptor EP4 subtype; assay: Binding affinity to rat EP4 receptor expressed in HEK293 cells; type: cell-based
Rattus norvegicus [7] = assay: Increase in cortical area at 30 mg/kg, sc 28 days post dose in ovariectomized osteopenic rat; type: functional; conditions: route subcutaneous
Rattus norvegicus [8] = assay: Increase in cortical area at 10 mg/kg, sc 28 days post dose in ovariectomized osteopenic rat; type: functional; conditions: route subcutaneous
Rattus norvegicus [9] = assay: Increase in cortical thickness at 30 mg/kg, sc 28 days post dose in ovariectomized osteopenic rat; type: functional; conditions: route subcutaneous
Rattus norvegicus [10] = assay: Increase in cortical thickness at 10 mg/kg, sc 28 days post dose in ovariectomized osteopenic rat; type: functional; conditions: route subcutaneous
Rattus norvegicus [11] = assay: Increase in cortical content at 30 mg/kg, sc 28 days post dose in ovariectomized osteopenic rat; type: functional; conditions: route subcutaneous
Rattus norvegicus [12] = assay: Increase in cortical content at 10 mg/kg, sc 28 days post dose in ovariectomized osteopenic rat; type: functional; conditions: route subcutaneous
Rattus norvegicus [13] = assay: Increase in total bone content at 30 mg/kg, sc 28 days post dose in ovariectomized osteopenic rat; type: functional; conditions: route subcutaneous
Rattus norvegicus [14] = assay: Increase in total bone content at 10 mg/kg, sc 28 days post dose in ovariectomized osteopenic rat; type: functional; conditions: route subcutaneous
Rattus norvegicus [15] = assay: Increase in total bone density at 30 mg/kg, sc 28 days post dose in ovariectomized osteopenic rat; type: functional; conditions: route subcutaneous
Rattus norvegicus [16] = assay: Increase in total bone density at 10 mg/kg, sc 28 days post dose in ovariectomized osteopenic rat; type: functional; conditions: route subcutaneous
[17] = Oral bioavailability in Sprague-Dawley rat; type: ADME, organism-based; conditions: in vivo
[18] = Half life in po dosed Sprague-Dawley rat; type: ADME, organism-based; conditions: in vivo
[19] = Half life in iv dosed Sprague-Dawley rat; type: ADME, organism-based; conditions: in vivo
[20] = Half life in sc dosed Sprague-Dawley rat; type: ADME, organism-based; conditions: in vivo
Rattus norvegicus [21] = assay: Volume distribution in sc dosed Sprague-Dawley rat; type: ADME, organism-based; conditions: in vivo
[22] = Plasma clearance in iv dosed Sprague-Dawley rat

T1 sequence (P43114 whole entry): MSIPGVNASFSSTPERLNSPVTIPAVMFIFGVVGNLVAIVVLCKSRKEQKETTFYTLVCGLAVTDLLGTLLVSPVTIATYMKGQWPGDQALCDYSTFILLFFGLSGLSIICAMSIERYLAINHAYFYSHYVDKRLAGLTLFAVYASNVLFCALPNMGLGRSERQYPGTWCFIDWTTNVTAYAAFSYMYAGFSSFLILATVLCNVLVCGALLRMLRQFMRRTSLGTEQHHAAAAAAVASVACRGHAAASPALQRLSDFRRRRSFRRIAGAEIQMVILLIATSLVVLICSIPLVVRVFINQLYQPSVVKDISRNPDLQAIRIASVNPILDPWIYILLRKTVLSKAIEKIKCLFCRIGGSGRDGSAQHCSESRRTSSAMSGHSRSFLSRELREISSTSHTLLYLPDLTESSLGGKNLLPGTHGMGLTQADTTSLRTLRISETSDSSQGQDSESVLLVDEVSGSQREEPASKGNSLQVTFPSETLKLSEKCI
Sequence of Prostaglandin E2 receptor EP4 subtype (Rattus norvegicus) (P43114 whole entry): as above

Row | EC50 [1] | Activity [2] | IC50 [4] | IC50 [6] | SMILES | also measured
1 | 40 nM | 90% | 86 nM | 80 nM | O=C(O)c1ccc(CCCN2C(=O)CC[C@@H]2CCC(O)Cc2ccc(Cl)cc2)s1 (stereo not given in full) | IC50 [3]: > 3200 nM; IC50 [5]: > 3200 nM
2 | 13 nM | 75% | > 3200 nM |  | O=C(O)CCCCCCN1C(=O)CC[C@@H]1CC[C@@H](O)Cc1cccc(C(F)(F)F)c1 | Activity (Rattus norvegicus [7]): 66.92%; Activity (Rattus norvegicus [8]): 21.93%; Activity (Rattus norvegicus [9]): 124.19%; Activity (Rattus norvegicus [10]): 34.12%; Activity (Rattus norvegicus [11]): 57.7%; Activity (Rattus norvegicus [12]): 29.78%; Activity (Rattus norvegicus [13]): 32.53%; Activity (Rattus norvegicus [14]): 15.34%; Activity (Rattus norvegicus [15]): 23.7%; Activity (Rattus norvegicus [16]): 18.73%; bioavailability [17]: 17%; half-life [18]: 25.2 min; half-life [19]: 12 min; half-life [20]: 25.8 min; Vdss (Rattus norvegicus [21]): 0.46 L/kg; clearance [22]: 71 mL/min/kg
3 | 170 nM | 100% | > 3200 nM | 1200 nM | O=C(O)CCCCCCN1C(=O)CC[C@@H]1CC[C@@H](O)Cc1cccc(O)c1 | 
4 |  |  | > 3200 nM | 126 nM | O=C(O)c1ccc(CCCN2C(=O)CCC2CCC(O)Cc2cccc(F)c2)cc1 (stereo not given) | 
5 | 425 nM | 106% | > 3200 nM | 42 nM | O=C(O)c1ccc(CCCN2C(=O)CCC2CCC(O)Cc2cccc(Cl)c2)cc1 (stereo not given) | IC50 [3]: > 3200 nM; IC50 [5]: > 3200 nM
6 |  | 102% | 483 nM |  | O=C(O)c1ccc(CCCN2C(=O)CC[C@@H]2CC[C@@H](O)Cc2cccc(C(F)(F)F)c2)s1 | bioavailability [17]: 1%; half-life [18]: 52.2 min; half-life [19]: 12 min; half-life [20]: 18 min; Vdss (Rattus norvegicus [21]): 0.49 L/kg; clearance [22]: 70 mL/min/kg
7 |  |  | > 3200 nM | 2710 nM | O=C(O)CCCCCCN1C(=O)CC[C@@H]1CC[C@@H](O)CCc1ccccc1 | 
8 | 0.6 nM | 70% | 188 nM | 1.1 nM | O=C(O)c1ccc(CCCN2C(=O)CC[C@@H]2CC[C@@H](O)Cc2cccc(Cl)c2)s1 | 
9 |  |  | > 3200 nM | 220 nM | O=C(O)c1ccc(CCCN2C(=O)CCC2CCC(O)Cc2cccc(Oc3ccccc3)c2)cc1 (stereo not given) | 
10 | 18 nM | 89% | > 3200 nM | 62 nM | COCc1cccc(C[C@H](O)CC[C@H]2CCC(=O)N2CCCCCCC(=O)O)c1 | IC50 [3]: > 3200 nM; IC50 [5]: > 2000 nM
11 | 500 nM | 73% | > 3200 nM | 65 nM | O=C(O)c1ccc(CCCN2C(=O)CC[C@@H]2CCC(O)Cc2ccc3ccccc3c2)s1 (stereo not given in full) | 
12 |  |  | > 3200 nM |  | O=C(O)CCCCCCN1C(=O)CC[C@@H]1CCC(O)Cc1cccc(Oc2ccccc2)c1 (stereo not given in full) | IC50 [3]: > 3200 nM; IC50 [5]: > 3200 nM
13 | 195 nM | 101% | > 3200 nM | 337 nM | O=C(O)CCCCCCN1C(=O)CC[C@@H]1CC[C@@H](O)Cc1cccc(-c2ccccc2)c1 | 
14 | 275 nM | 82% | 1200 nM | 140 nM | CCc1ccc(CC(O)CC[C@H]2CCC(=O)N2CCCc2ccc(C(=O)O)s2)cc1 (stereo not given in full) | 
15 |  |  | 125 nM | 1600 nM | O=C(O)c1ccc(CCCN2C(=O)CC[C@@H]2CCC(O)Cc2ccccc2-c2ccccc2)s1 (stereo not given in full) | 
16 | 22 nM | 70% | 1200 nM | 70 nM | O=C(O)c1ccc(CCCN2C(=O)CC[C@@H]2CC[C@@H](O)Cc2ccc(F)cc2)s1 | 
17 |  |  | > 3200 nM | 250 nM | O=C(O)c1ccc(CCCN2C(=O)CCC2CCC(O)Cc2ccccc2)cc1 (stereo not given) | IC50 [3]: > 3200 nM; IC50 [5]: > 3200 nM
18 |  |  | > 3200 nM | > 3200 nM | O=C(O)CCCCCCN1C(=O)CCC1CCC(O)CCc1ccccc1 (stereo not given) | 
19 | 92 nM | 82% | > 3200 nM | 210 nM | COCCc1cccc(C[C@H](O)CC[C@H]2CCC(=O)N2CCCCCCC(=O)O)c1 | 
20 | 440 nM | 97% | > 3200 nM | 47 nM | O=C(O)c1ccc(CCCN2C(=O)CCC2CCC(O)Cc2cccc(-c3ccccc3)c2)cc1 (stereo not given) | 
21 | 32.5 nM | 114% | > 3200 nM | 54 nM | O=C(O)CCCCCCN1C(=O)CC[C@@H]1CCC(O)Cc1ccccc1 (stereo not given in full) | bioavailability [17]: 21%; half-life [18]: 27 min; half-life [19]: 6 min; half-life [20]: 21 min; Vdss (Rattus norvegicus [21]): 0.4 L/kg; IC50 [3]: > 3200 nM; IC50 [5]: > 3200 nM; clearance [22]: 101 mL/min/kg
22 | 2.4 nM | 97% | 640 nM | 17 nM | O=C(O)c1ccc(CCCN2C(=O)CC[C@@H]2CCC(O)Cc2cccc(F)c2)s1 (stereo not given in full) | 
23 | 8.8 nM | 89% | > 3200 nM | 22 nM | O=C(O)CCCCCCN1C(=O)CCC1CCC(O)Cc1cccc(Cl)c1 (stereo not given) | 
24 | 105 nM | 105% | > 3200 nM | 70 nM | O=C(O)c1ccc(CCCN2C(=O)CC[C@@H]2CC[C@@H](O)Cc2cccc(C(F)(F)F)c2)cc1 | 
25 | 96 nM | 104% | > 3200 nM | 388 nM | N#Cc1cccc(C[C@H](O)CC[C@H]2CCC(=O)N2CCCCCCC(=O)O)c1 | 
26 | 50 nM | 78% | > 3200 nM | 59 nM | O=C(O)CCCCCCN1C(=O)CC[C@@H]1CC[C@@H](O)Cc1cccc(OC(F)(F)F)c1 | 
27 |  |  | > 3200 nM | 2770 nM | O=C(O)c1ccc(CCCN2C(=O)CCC2CCC(O)Cc2ccc(F)cc2)cc1 (stereo not given) | IC50 [3]: > 3200 nM; IC50 [5]: > 3200 nM
28 | 203 nM | 95% | 135 nM | 50 nM | O=C(O)c1ccc(CCCN2C(=O)CC[C@@H]2CCC(O)Cc2cccc(-c3ccccc3)c2)s1 (stereo not given in full) | IC50 [3]: 18600 nM; IC50 [5]: 20000 nM
29 | 1.7 nM | 88% | 690 nM | 21 nM | O=C(O)c1ccc(CCCN2C(=O)CC[C@@H]2CCC(O)Cc2ccccc2)s1 (stereo not given in full) | 
